Experimental data reported in patent publication US8044089B2, “3-3-di-substituted-oxindoles as inhibitors of translation initiation” (President and Fellows of Harvard College, priority 2004, dated 2011).

system: eIF2α; assay: eIF2α phosphorylation measured by Western blot; assay type: cell-based; conditions: not given
Source text: (§1) As a non-limiting example, compounds 1272 and 1273 (set forth in Table 1) were synthesized starting from 3-bromoaniline, which upon condensation with hydroxylamine and chloral hydrate followed by concentrated sulfuric acid yielded an inseparable regioisomeric mixture of 4- and 6-bromo isatins. The addition of the two phenyl groups to the three position of the oxindole allowed easy chromatographic separation of the 4- and 6-bromo-3,3-diphenyloxindoles 1272 and 1273. Table 1 sets forth biological data for diaryloxindole compounds including, but not limited to 1272 and 1273. For Tables 1-14, Ca^2+ refers to Ca^2+ release from intracellular stores where a “+” denotes release and a “+/−” denotes inconclusive; eIF2α-P refers to phosphorylation of eIF2α measured by Western blot; SRB refers to the inhibitory concentration to reduce cell growth by 50% (IC50) for growth inhibition of A549 lung cancer cells; and n.d. is not determined.
(§2) Without intending to be bound by theory, the mechanism of action of translation initiation inhibitors is set forth in FIG. 1, and includes the depletion (complete or partial depletion) of intracellular calcium (Ca^2+) stores and phosphorylation of eIF2α. Compounds synthesized using the approaches described herein were screened for their ability to partially deplete intracellular Ca^2+ stores using FURA-2AM loaded cells (Benzaquen et al. (1995) Nature Medicine, 1:534, incorporated herein by reference in its entirety for all purposes). A limited subset of compounds were further screened for their ability to deplete endoplasmic reticulum (ER) Ca^2+. The Ca^2+ content of the ER was monitored using ER-targeted, Ca^2+ sensitive, recombinant proteins. These recombinant proteins emitted light by fluorescent resonance energy transfer (FRET) as a function of the Ca^2+ content of the medium. Such assays are previously described (Miyawaki, A.; Mizuno, H.; Llopis, J.; Tsien, R. Y.; Jalink, K. Cameleons as cytosolic and intra-organellar calcium probes, Oxford University Press: Oxford, London, 2001; pp 3-16, incorporated herein by reference in its entirety for all purposes). Compounds that depleted Ca^2+ were further evaluated for their ability to phosphorylate eIF2α. eIF2α phosphorylation was measured by Western blot analysis using the phospho-specific anti-eIF2α antibody, as previously described (Aktas et al. (1998) Proc. Natl. Acad. Sci. USA, 95:8280, incorporated herein by reference in its entirety for all purposes).

Compound	eIF2α phosphorylation (in words)
O=C1Nc2ccc(Br)cc2C1(c1ccccc1)c1ccccc1 [Compound 1205]	none of the compounds exhibited an increase in eIF2α phosphorylation relative to compound 1392
O=C1Nc2c(Br)cccc2C1(c1ccccc1)c1ccccc1 [Compound 1207]	none of the compounds exhibited an increase in eIF2α phosphorylation relative to compound 1392
O=C1Nc2c(CO)ccc(Cl)c2C1(c1ccccc1)c1ccccc1 [Compound 1398]	reduced eIF2α phosphorylation relative to compound 1392

same assay, conditions: Western blot; unit or reference not given

Compound	eIF2α-P (phosphorylation of eIF2α measured by Western blot)
COC(=O)C(Cc1ccc(O)c(C2(c3ccccc3)C(=O)Nc3ccccc32)c1)NC(=O)OCC1c2ccccc2-c2ccccc21 (stereo not drawn) [Compound 1172]	1.94
O=C1Nc2ccccc2C1(c1ccccc1)c1ccccc1 [Compound 1194]	2.5
O=C1Nc2ccccc2C1(c1ccccc1)c1ccccc1O (stereo not drawn) [Compound 1197]	1.50
O=C1Nc2ccc(Br)cc2C1(c1ccccc1)c1ccccc1 [Compound 1205]	2.05
O=C1Nc2ccc(Cl)cc2C1(c1ccccc1)c1ccccc1 [Compound 1206]	1.58
O=C1Nc2c(Br)cccc2C1(c1ccccc1)c1ccccc1 [Compound 1207]	2.01
O=C1Nc2ccccc2C1(c1ccc(Cl)cc1)c1ccccc1O (stereo not drawn) [Compound 1208]	1.42
CC(C)(C)c1ccc(O)c(C2(c3ccccc3)C(=O)Nc3cccc(Cl)c32)c1 (stereo not drawn) [Compound 1209]	2.08
CC(C)(C)c1ccc(O)c(C2(c3ccc(F)cc3)C(=O)Nc3ccccc32)c1 (stereo not drawn) [Compound 1210]	1.86
CC(C)(C)c1ccc(O)c(C2(c3ccccc3)C(=O)Nc3ccc(Br)cc32)c1 (stereo not drawn) [Compound 1211]	1.14
CC(C)(C)c1ccc(O)c(C2(c3ccccc3)C(=O)Nc3ccc([N+](=O)[O-])cc32)c1 (stereo not drawn) [Compound 1212]	1.28
CC(C)(C)c1ccc(O)c(C2(c3ccccc3)C(=O)Nc3ccc(I)cc32)c1 (stereo not drawn) [Compound 1213]	2
COc1ccc2c(c1)C(c1ccccc1)(c1cc(C(C)(C)C)ccc1O)C(=O)N2 (stereo not drawn) [Compound 1214]	1.62
C=CCCCOc1ccc(C2(c3cc(C(C)(C)C)ccc3O)C(=O)Nc3ccccc32)cc1 (stereo not drawn) [Compound 1218]	1.36
O=C1Nc2ccc(S(=O)(=O)O)cc2C1(c1ccccc1)c1ccccc1 [Compound 1266]	1.62
O=C1Nc2c(I)cccc2C1(c1ccccc1)c1ccccc1 [Compound 1267]	1.88
CCc1cccc2c1NC(=O)C2(c1ccccc1)c1ccccc1 [Compound 1268]	2.19
CCCCCCCCCCCCC1(c2cc(C(C)(C)C)ccc2O)C(=O)Nc2ccccc21 (stereo not drawn) [Compound 1274]	0.91
O=C1Nc2c(CO)ccc(Cl)c2C1(c1ccccc1)c1ccccc1 [Compound 1398]	1.48

system: A549 lung cancer cells; assay: SRB growth inhibition of A549 lung cancer cells; assay type: cell-based, human; conditions: A549
Source text: As a non-limiting example, compounds 1272 and 1273 (set forth in Table 1) were synthesized starting from 3-bromoaniline, which upon condensation with hydroxylamine and chloral hydrate followed by concentrated sulfuric acid yielded an inseparable regioisomeric mixture of 4- and 6-bromo isatins. The addition of the two phenyl groups to the three position of the oxindole allowed easy chromatographic separation of the 4- and 6-bromo-3,3-diphenyloxindoles 1272 and 1273. Table 1 sets forth biological data for diaryloxindole compounds including, but not limited to 1272 and 1273. For Tables 1-14, Ca^2+ refers to Ca^2+ release from intracellular stores where a “+” denotes release and a “+/−” denotes inconclusive; eIF2α-P refers to phosphorylation of eIF2α measured by Western blot; SRB refers to the inhibitory concentration to reduce cell growth by 50% (IC50) for growth inhibition of A549 lung cancer cells; and n.d. is not determined. […]

Compound	growth inhibition of cancer cells (in words)
O=C1Nc2c(CO)ccc(Cl)c2C1(c1ccccc1)c1ccccc1 [Compound 1398]	reduced potency of tumor cell growth inhibition

same assay, conditions: A549 lung cancer cells; unit inferred; read-out: SRB (IC50 for growth inhibition of A549 lung cancer cells)

IC50 [µM]	Compound
13	O=C1Nc2ccccc2C1(c1ccccc1)c1ccccc1 [Compound 1194]
14	O=C1Nc2ccccc2C1(c1ccccc1)c1ccccc1O (stereo not drawn) [Compound 1197]
9	O=C1Nc2ccc(Br)cc2C1(c1ccccc1)c1ccccc1 [Compound 1205]
9	O=C1Nc2ccc(Cl)cc2C1(c1ccccc1)c1ccccc1 [Compound 1206]
3	O=C1Nc2c(Br)cccc2C1(c1ccccc1)c1ccccc1 [Compound 1207]
10	O=C1Nc2ccccc2C1(c1ccc(Cl)cc1)c1ccccc1O (stereo not drawn) [Compound 1208]
8	CC(C)(C)c1ccc(O)c(C2(c3ccccc3)C(=O)Nc3cccc(Cl)c32)c1 (stereo not drawn) [Compound 1209]
4	CC(C)(C)c1ccc(O)c(C2(c3ccc(F)cc3)C(=O)Nc3ccccc32)c1 (stereo not drawn) [Compound 1210]
3	CC(C)(C)c1ccc(O)c(C2(c3ccccc3)C(=O)Nc3ccc(Br)cc32)c1 (stereo not drawn) [Compound 1211]
4	CC(C)(C)c1ccc(O)c(C2(c3ccccc3)C(=O)Nc3ccc([N+](=O)[O-])cc32)c1 (stereo not drawn) [Compound 1212]
3	CC(C)(C)c1ccc(O)c(C2(c3ccccc3)C(=O)Nc3ccc(I)cc32)c1 (stereo not drawn) [Compound 1213]
6	COc1ccc2c(c1)C(c1ccccc1)(c1cc(C(C)(C)C)ccc1O)C(=O)N2 (stereo not drawn) [Compound 1214]
7	C=CCCCOc1ccc(C2(c3cc(C(C)(C)C)ccc3O)C(=O)Nc3ccccc32)cc1 (stereo not drawn) [Compound 1218]
9	O=C1Nc2ccc(S(=O)(=O)O)cc2C1(c1ccccc1)c1ccccc1 [Compound 1266]
14	CCc1cccc2c1NC(=O)C2(c1ccccc1)c1ccccc1 [Compound 1268]
3	CCCCCCCCCCCCC1(c2cc(C(C)(C)C)ccc2O)C(=O)Nc2ccccc21 (stereo not drawn) [Compound 1274]
14	O=C1Nc2c(CO)ccc(Cl)c2C1(c1ccccc1)c1ccccc1 [Compound 1398]

system: intracellular Ca^2+ stores; assay: Ca2+ release from intracellular stores (FURA-2AM loaded cells); assay type: cell-based; parameters: key to Ca^2+ (Ca^2+ release from intracellular stores): a “+” denotes release; a “+/−” denotes inconclusive; conditions: not given
Source text: as §1, §2

Compound	Ca^2+ (Ca^2+ release from intracellular stores)	Ca^2+ release / depletion of intracellular Ca^2+ (in words)
COC(=O)C(Cc1ccc(O)c(C2(c3ccccc3)C(=O)Nc3ccccc32)c1)NC(=O)OCC1c2ccccc2-c2ccccc21 (stereo not drawn) [Compound 1172]	+	–
O=C1Nc2ccccc2C1(c1ccccc1)c1ccccc1 [Compound 1194]	+	–
O=C1Nc2ccccc2C1(c1ccccc1)c1ccccc1O (stereo not drawn) [Compound 1197]	+	–
O=C1Nc2ccc(Br)cc2C1(c1ccccc1)c1ccccc1 [Compound 1205]	+	–
O=C1Nc2ccc(Cl)cc2C1(c1ccccc1)c1ccccc1 [Compound 1206]	+	–
O=C1Nc2c(Br)cccc2C1(c1ccccc1)c1ccccc1 [Compound 1207]	+/−	abrogated Ca^2+ depletion activity
O=C1Nc2ccccc2C1(c1ccc(Cl)cc1)c1ccccc1O (stereo not drawn) [Compound 1208]	+	–
CC(C)(C)c1ccc(O)c(C2(c3ccccc3)C(=O)Nc3cccc(Cl)c32)c1 (stereo not drawn) [Compound 1209]	+	–
CC(C)(C)c1ccc(O)c(C2(c3ccc(F)cc3)C(=O)Nc3ccccc32)c1 (stereo not drawn) [Compound 1210]	+	–
CC(C)(C)c1ccc(O)c(C2(c3ccccc3)C(=O)Nc3ccc(Br)cc32)c1 (stereo not drawn) [Compound 1211]	+	–
CC(C)(C)c1ccc(O)c(C2(c3ccccc3)C(=O)Nc3ccc([N+](=O)[O-])cc32)c1 (stereo not drawn) [Compound 1212]	+	–
CC(C)(C)c1ccc(O)c(C2(c3ccccc3)C(=O)Nc3ccc(I)cc32)c1 (stereo not drawn) [Compound 1213]	+/−	–
COc1ccc2c(c1)C(c1ccccc1)(c1cc(C(C)(C)C)ccc1O)C(=O)N2 (stereo not drawn) [Compound 1214]	+	–
